The values below come from publication PMC4421842 (Nature Communications, 2015).

One data set has as its target T1, S83L E. coli DNA gyrase (Escherichia coli, UniProt P0AES4+P0AES6, S83L).
T1 construct: His tag (pTRCHisA vector; purified on Ni-NTA); made in house; host or cells: E. coli One Shot BL21 Star (DE3)
The data set is classed as biochemical. The settings on record: DNA cleavage assay.

The next data set relates to human erythrocytes. The experiment in a line: In-vitro haemolysis assay. It counts as cell-based. The settings on record: human red blood cells, 2 h at 37°C, 160 µg mL-1 or highest concentration solubility allowed. The protocol:
Haemolysis assays were performed as previously described. Briefly, assays were performed using human erythrocytes within 3 days of receipt. One millilitre of human blood purchased from Bioreclamation, Inc. (Hicksville, NY) was centrifuged (10,000 × g, 2 min). The pellet was washed three times with sterile saline (0.9% NaCl in water) by repeated gentle suspension and centrifugation. The pellet was resuspended in RBC buffer (10 mM Na2HPO4, 150 mM NaCl, 1 mM MgCl2 pH 7.4). To evaluate haemolytic activity of DNM and derivatives, 1 μl either 3.2 mg ml^−1 DMSO stock (or the most concentrated stock of the compound available if not soluble at 3.2 mg ml^−1 in DMSO) was transferred to 0.5 ml Eppendorf tubes containing 19 μl RBC buffer. Negative control tubes contained 1 μl DMSO and 19 μl RBC buffer, and positive control tubes contained 1 μl DMSO and 19 μl sterile deionized water. A suspension of washed erythrocytes (10 μl) was added to each tubes and samples were incubated at 37 °C for 2 h. Samples were centrifuged at 10,000 × g for 2 min and the supernatants from each sample (25 μl) were transferred to a clear, sterile 384-well plate. The absorbance of these supernatants was measured at 540 nm using a SpectraMaxPlus384 absorbance plate reader (Molecular Devices). Per cent haemolysis of each sample was calculated relative to the average absorbance values measured for positive controls.

The next data set deals with T2, human topoisomerase II (Homo sapiens, UniProt P11388).
T2 construct: purchased Inspiralis
Nature of the data set: Human topoisomerase decatenation assay. The data set is classed as biochemical. The settings on record: decatenation assay. On the procedure:
The decatenation assay was performed with the Human Topo II Decatenation Assay Kit (Inspiralis), according to the manufacturer's instructions, with minor modifications. First, a master mix was made containing 2 μl of 10 × assay buffer (500 mM Tris-HCl pH 7.5, 1250, mM NaCl, 100 mM MgCl2, 50 mM DTT, 1,000 μg ml^−1 albumin), 0.67 μl of 30 mM ATP, 1.34 μl of 0.1 ng μl^−1 kDNA, and 14.3 μl of nuclease-free water per sample is made. DMSO or 30 × compound is added to a 0.5-ml Eppendorf tube (0.67 μl per tube). The master mix is then added to each tube (18.3 μl per tube). Finally, 1 U of human topoisomerase (1 μl of 1 U μl^−1 stock) is added to each tube for a final volume of 20 μl. The tubes are then incubated at 37 °C for 30 min. Reactions are stopped by the addition of 20 μl of 24:1 chloroform:isoamyl alcohol and 20 μl of stop dye (40% sucrose, 1 mM EDTA, 100 mM Tris-HCl pH 7.5, 0.5 μg ml^−1 bromophenol blue). Samples were run on 1% agarose gels containing 0.5 μg ml^−1 ethidium bromide for 1 h at 110 V or until the dye front was approximately halfway down the gel. Gels were imaged on a Molecular Imager Gel Doc XR+ (Biorad).

The next data set concerns Herring Sperm DNA. The experiment in a line: Intercalation assay (ethidium bromide displacement). The data set is classed as binding. On the procedure: Intercalation assays were performed as previously described. The ability of DNM-2 to intercalate into DNA was measured by an ethidium bromide displacement assay. Herring Sperm DNA (34 μg ml^−1 final) was premixed with buffer containing ethidium bromide (50 mM Tris base, 100 mM NaCl, 1 mM EDTA, 5 μM EtBr pH 7.5). Ninety-five microlitres of this solution was added to a 96-well plate containing 5 μl of DMSO solutions of compounds. […] Doxorubicin was used as a positive control. The reactions were allowed to incubate for 30 min. Fluorescence was then read on a Gemini microplate reader (Molecular Devices, excitation=545 nm, emission=595 nm).

The nature of data set [1]: In-vivo toxicity assessment, once daily for 10 days. Also noted: species or system BALB/c mice. The note with it: mice. On the procedure:
Toxicity was assessed as previously described. Specifically, heparinized whole blood was collected for assessment of total white blood cells, neutrophils, lymphocytes, haematocrit, platelets, creatinine, blood urea, nitrogen, albumin, alanine aminotransferase, alkaline phosphatase and total bilirubin. Mice were euthanized by overdosing with ketamine/xylazine and the heart, lung, kidney, liver, spleen, gastrointestinal tract and the brain were collected for histopathology. Tissue samples were fixed 24 h in 10% neutral buffered formalin, processed and paraffin embedded, sectioned (5 μm thickness) and stained with haematoxylin and eosin. All slides were systematically evaluated by a single board-certified veterinary anatomic pathologist (SL) for evidence of acute or chronic inflammation and toxicity. All lesions were characterized, recorded and scored for severity (minimal=1, mild=2, moderate=3, marked=4, and severe=5).

A further data set deals with FQR MRSA (NRS3). The experiment in a line: In-vivo efficacy, mouse sepsis model. The settings on record: 50 mg kg^−1 oral gavage once daily for 10 days; n=15; Kaplan–Meier, log rank survival test.
The mark [2] stands for this setting: 50 mg kg-1 oral gavage once daily for 10 days.
The mark [3] stands for this setting: 50 mg kg^−1 oral gavage once daily for 10 days.

Molecules are shown by their SMILES. “Also recorded” adds a separate entry of the source. Bounds are passed on as bounds.

In the case of `Cc1cc(=O)n(C)c2c3c4c(cc12)c(C)cc(=O)n4CO3` [DNM, deoxynybomycin], the “concentration giving significant buildup of OC DNA (P<0.05)” value at S83L E. coli DNA gyrase was found to be 0.17 µM. Besides, in the data set with human erythrocytes, the haemolysis entry is on record as “none of these compounds induce haemolysis”.

Consider `CCn1c(=O)cc(C)c2cc3c(C)cc(=O)n4c3c(c21)OC4` [DNM-2], for which, at human topoisomerase II, the “concentration inhibiting human topoisomerase II” value is more than 30 µM. Also, the “concentration with significant DNA intercalation” value with Herring Sperm DNA is more than 30 µM. In data set [1] (setting [2]), the ALP is on record as 60 ± 10 U/L, the ALT turned out to be 36 ± 1 U/L, the Albumin was found to be 3.2 ± 0.1 g/dL and the “BUN (Urea)” value is listed as 32.0 ± 0.4 mg/dL. In data set [1] (setting [2]), this compound registered a Creatine of 0.2 ± 0.0 mg/dL, a Globulin of 2.62 ± 0.05 g/dL, a Hematocrit of 40 ± 1% and a Hemoglobin of 14.2 ± 0.3 g/dL. Also, in data set [1] (setting [2]), the Lymphocyte is recorded as 81 ± 3 % of WBC, the “Mean Cell Volume” value came out at 47.3 ± 0.4 fL, the Neutrophil is 18 ± 3 % of WBC and the RBC was 8.5 ± 0.2 X106/µL. Besides, in data set [1] (setting [2]), the WBC came to 3800 ± 300 cells/µL. In addition, the Platelet in data set [1] (50 mg kg-1 oral gavage once daily for 10 days, counts low because of platelet clumps) was 60,000 ± 10,000 cells/µL. Further, in data set [1] (50 mg kg-1 oral gavage once daily for 10 days, increased also in vehicle due to hemolysis during blood collection), the “Total Bilirubin” value came out at 0.7 ± 0.1 mg/dL. In data set [1] (setting [3]), the “adipocytes and triglyceride levels” value is “Increased vacuolation of white and brown adipocytes with a minimal increase in triglyceride levels”; the “haematological and non-haematological toxicity markers” value is given as “No clinically significant evidence for myelosuppression, renal injury or hepatic toxicity was identified”; the “histopathology of kidney, brain, lung, liver, spleen, heart and stomach” value is “did not reveal any evidence of toxicity”; the “histopathology of small intestine sections” value was “mild intestinal dilation associated with villi atrophy”. Besides, the “survival of mice infected with MRSA (NRS3, FQR)” value in the data set with FQR MRSA (NRS3) is “***P<0.005 versus vehicle and CIP; also recorded: significant survival difference relative to both CIP and vehicle-treated control; also recorded: effective in treating mice infected with MRSA”.
